Experimental data published in patent US20240327433A1, “PYRIMIDOPYRAN COMPOUND” (Medshine Discovery Inc., priority 2021, published 2024).
Where a name gives a salt, the structure may show the parent alone.

Key:
[1] = PPB assay: recovery rate in the dialysis device (five species plasma); type: in vitro ADME; details: CD-1 (mouse), Sprague-Dawley (rat), Beagle (dog), cynomolgus monkey, human
Protocol: (§1) The protein binding rates of the compound in the plasma of CD-1 mouse, Sprague-Dawley rat, Beagle dog, cynomolgus monkey and human were determined by equilibrium dialysis method. The plasmas of the above-mentioned five species were formulated to plasma samples with a compound concentration of 2 μM. The plasma samples were placed in a 96-well rapid equilibrium dialysis device, and dialyzed against phosphate buffered saline at 37±1° C. for 4 h. In this assay, warfarin was used as a control compound. The concentrations of analytes in plasma and dialysis buffer were determined by LC-MS/MS mothed.

[2] = Plasma protein binding (PPB), equilibrium dialysis, Sprague-Dawley rat plasma; type: in vitro ADME; details: 2 μM, unbound rate
Protocol: (§2) The protein binding rates of the compound in the plasma of CD-1 mouse, Sprague-Dawley rat, Beagle dog, cynomolgus monkey and human were determined by equilibrium dialysis method.
as §1, with “The” for “The protein binding rates of the compound in the plasma of CD-1 mouse, Sprague-Dawley rat, Beagle dog, cynomolgus monkey and human were determined by equilibrium dialysis method. The”

p-ERK in GP2D cells = test: Assay of p-ERK inhibition in GP2D cells (HTRF); type: cell-based; details: 1 hour incubation
Protocol: The cell plate was inoculated in a carbon dioxide incubator at 37° C. overnight; • 2) 2 μL of the compound was weighed and added to 78 μL of the cell medium. After the mixture was mixed thoroughly, 20 μL of the solution of compound was weighed and added to the corresponding well of the cell plate. The cell plate was placed back to the carbon dioxide incubator and incubated for another 1 hour; • 3) After completion of the incubation, the cell supernatant was discarded. 50 μL of 1× cell lysate was added to each well. The mixture was incubated with shaking at room temperature for 30 minutes; • 4) Phospho-ERK1/2 Eu Cryptate antibody and Phospho-ERK1/2 d2 antibody were diluted 20-fold with detection buffer; • 5) 16 μL of cell lysate supernatant was weighed and added into each well of a new 384 white microwell plate, and then 2 μL of the diluted solution of Phospho-ERK1/2 Eu Cryptate antibody and 2 μL of the diluted solution of Phospho-ERK1/2 d2 antibody dilution were added. The mixture was incubated at room temperature for at least 4 hours; • 6) After completion of the incubation, HTRF was read with multi-label analyzer: excitation: 320 nm, emission: 615 nm, 665 nm; • 7). IC50 of the compounds to be assayed was calculated.

[3] = Plasma protein binding (PPB), equilibrium dialysis, cynomolgus monkey plasma; type: in vitro ADME; details: 2 μM, unbound rate
Protocol: as §2
as §1, with “The” for “The protein binding rates of the compound in the plasma of CD-1 mouse, Sprague-Dawley rat, Beagle dog, cynomolgus monkey and human were determined by equilibrium dialysis method. The”

[4] = Plasma protein binding (PPB), equilibrium dialysis, CD-1 mouse plasma; type: in vitro ADME; details: 2 μM, unbound rate
Protocol: as §2
as §1, with “The” for “The protein binding rates of the compound in the plasma of CD-1 mouse, Sprague-Dawley rat, Beagle dog, cynomolgus monkey and human were determined by equilibrium dialysis method. The”

KRAS^G12D AsPC-1 = test: Anti-cell proliferation effect in tumor cell line AsPC-1 (CellTiter-Glo 3D); type: cell-based; details: Homo sapiens, ASPC1, AsPC-1, 120 hours
Protocol: (§3) In this assay, the effect of the compounds on inhibiting cell proliferation was studied by detecting the effect of the compounds on the cell activity in vitro in the tumor cell lines AsPC-1 and GP2D.
(§4) The tumor cell lines were cultured in a 37° C., 5% CO2 incubator according to the culture conditions indicated in the culture method. Cells were passaged regularly, and cells in logarithmic growth phase were used for plating.
(§5) Cells were stained with trypan blue and viable cells were counted.
(§6) The cell concentration was adjusted to an appropriate concentration.
(§7) To each well of a ULA culture plate was added 135 μL of cell suspension. To the blank control well was added the same volume of culture medium without cells.
(§8) After plating, the ULA culture plate was immediately centrifuged at room temperature at 1000 rpm for 10 minutes. Note: After completion of the centrifugation, subsequent operations must be processed carefully to avoid unnecessary shocks.
(§9) The culture plate was incubated in a 37° C., 5% CO2, 100% relative humidity incubator overnight.
(§10) 10× compound working solution (10× working solution in DMSO) was formulated, and then to the ULA culture plate was add 15 μL of 10× compound working solution, and to the vehicle control and blank control was added 15 μL of DMSO-cell culture medium mixture, respectively. […]
(§11) The luminescent signal was detected on a 2104 EnVision plate reader. […]

KRAS^G12D GP2D = test: Anti-cell proliferation effect in tumor cell line GP2D (CellTiter-Glo 3D); type: cell-based; details: 120 hours
Protocol: as §3, §4, §5, §6, §7, §8, §9, §10, §11

[5] = Pharmacokinetic study of oral and intravenously injected compounds in CD-1 mouse; type: in vivo
Protocol: To assay the pharmacokinetics of oral and intravenously injected compounds in CD-1 mouse. The assay compound was mixed with 5% DMSO+95% (10% HP-β-CD) aqueous solution. The mixture was vortexed and sonicated to prepare a clear solution of 0.5 mg/mL (intravenous) or a clear solution of 3 mg/mL (oral). The clear solution was filtered by a microporous membrane for use. […] Whole blood was collected for a certain period of time, and prepared to obtain plasma. Drug concentration was analyzed by LC-MS/MS method, and pharmacokinetic parameters were calculated by Phoenix WinNonlin software (Pharsight, USA).

[6] = male, CD-1, plasma, intravenous (IV), about 2 mg/kg
[7] = male, CD-1, plasma, oral (PO), about 30 mg/kg

For `Cc1cc(N)c(F)c(C2Cc3nc(OC[C@@]45CCCN4C[C@H](F)C5)nc(N4CC5CCC(C4)N5)c3CO2)c1C(F)(F)F` (stereo partly drawn) [Compound 1 hydrochloride], the recovery at 4 h, 2 μM [1] was 82.4 to 110%, the “Unbound PPB R” value [2] was 3.0% and the IC50 (p-ERK in GP2D cells) was 0.0008 µM. The “Unbound PPB C” value [3] was 6.3%, the “Unbound PPB M” value [4] was 2.7% and the IC50 (KRAS^G12D AsPC-1) was 0.315 µM. For the same compound, the IC50 (KRAS^G12D GP2D) was 0.037 µM, the AUC(0-t) [5, 6] was 353 nM·h and the C0 [5, 6] was 1.4 µM. For the same compound, the Vd [5, 6] was 148 L/kg, the clearance [5, 6] was 6.36 L/h/kg and the half-life [5, 6] was 23.1 h. For the same compound, the AUC(0-inf) [5, 7] was 1350 nM·h, the Cmax [5, 7] was 0.228 µM and the F ([5]; oral (PO), about 30 mg/kg, oral bioavailability) was 25.5%.
